How the values were obtained:
Assay type in all cases: functional
[1] = system: SK-N-SH; assay: Effect on CRHR1 mRNA expression in human SK-N-SH cells at EC10 by qPCR method relative to beta-actin
[2] = system: U-118-MG; assay: Effect on CRHR1 mRNA expression in human U118MG cells at EC10 by qPCR method relative to beta-actin
[3] = system: U-118-MG; assay: Effect on GRM1 mRNA expression in human U118MG cells at EC10 by qPCR method relative to beta-actin
[4] = system: SH-SY5Y; assay: Effect on C1S mRNA expression in human SH-SY5Y cells at EC10 by qPCR method relative to beta-actin
[5] = system: SK-N-SH; assay: Effect on LTA mRNA expression in human SK-N-SH cells at EC10 by qPCR method relative to beta-actin
[6] = system: U-118-MG; assay: Effect on CD4 mRNA expression in human U118MG cells at EC10 by qPCR method relative to beta-actin
[7] = system: U-118-MG; assay: Effect on IL13 mRNA expression in human U118MG cells at EC10 by qPCR method relative to beta-actin
[8] = system: SH-SY5Y; assay: Effect on LTA mRNA expression in human SH-SY5Y cells at EC10 by qPCR method relative to beta-actin
[9] = system: SK-N-SH; assay: Effect on IL13 mRNA expression in human SK-N-SH cells at EC10 by qPCR method relative to beta-actin
[10] = system: SH-SY5Y; assay: Effect on HDAC1 mRNA expression in human SH-SY5Y cells at EC10 by qPCR method relative to beta-actin
[11] = system: SK-N-SH; assay: Effect on HIF1 mRNA expression in human SK-N-SH cells at EC10 by qPCR method relative to beta-actin
[12] = system: U-118-MG; assay: Effect on AGT mRNA expression in human U118MG cells at EC10 by qPCR method relative to beta-actin
[13] = system: U-118-MG; assay: Effect on ITGB2 mRNA expression in human U118MG cells at EC10 by qPCR method relative to beta-actin
[14] = system: SH-SY5Y; assay: Effect on RAF1 mRNA expression in human SH-SY5Y cells at EC10 by qPCR method relative to beta-actin
[15] = system: SH-SY5Y; assay: Effect on PTGDR mRNA expression in human SH-SY5Y cells at EC10 by qPCR method relative to beta-actin
[16] = system: U-118-MG; assay: Effect on PTGDR mRNA expression in human U118MG cells at EC10 by qPCR method relative to beta-actin
[17] = system: U-118-MG; assay: Effect on STAT3 mRNA expression in human U118MG cells at EC10 by qPCR method relative to beta-actin
[18] = system: U-118-MG; assay: Effect on RAF1 mRNA expression in human U118MG cells at EC10 by qPCR method relative to beta-actin
[19] = system: SH-SY5Y; assay: Effect on MAL mRNA expression in human SH-SY5Y cells at EC10 by qPCR method relative to beta-actin
[20] = system: SK-N-SH; assay: Effect on GRM5 mRNA expression in human SK-N-SH cells at EC10 by qPCR method relative to beta-actin
[21] = system: SH-SY5Y; assay: Effect on HIF1A mRNA expression in human SH-SY5Y cells at EC10 by qPCR method relative to beta-actin
[22] = system: SH-SY5Y; assay: Effect on CSF1 mRNA expression in human SH-SY5Y cells at EC10 by qPCR method relative to beta-actin
[23] = system: U-118-MG; assay: Effect on APP mRNA expression in human U118MG cells at EC10 by qPCR method relative to beta-actin
[24] = system: U-118-MG; assay: Effect on ADRB2 mRNA expression in human U118MG cells at EC10 by qPCR method relative to beta-actin
[25] = system: SH-SY5Y; assay: Effect on GRM5 mRNA expression in human SH-SY5Y cells at EC10 by qPCR method relative to beta-actin
[26] = system: SH-SY5Y; assay: Effect on GRM7 mRNA expression in human SH-SY5Y cells at EC10 by qPCR method relative to beta-actin
[27] = system: SH-SY5Y; assay: Effect on ITGB2 mRNA expression in human SH-SY5Y cells at EC10 by qPCR method relative to beta-actin
[28] = system: U-118-MG; assay: Effect on MAL mRNA expression in human U118MG cells at EC10 by qPCR method relative to beta-actin
[29] = system: SK-N-SH; assay: Effect on HDAC1 mRNA expression in human SK-N-SH cells at EC10 by qPCR method relative to beta-actin
[30] = system: U-118-MG; assay: Effect on OPRD1 mRNA expression in human U118MG cells at EC10 by qPCR method relative to beta-actin
[31] = system: SH-SY5Y; assay: Effect on CXCL9 mRNA expression in human SH-SY5Y cells at EC10 by qPCR method relative to beta-actin
[32] = system: U-118-MG; assay: Effect on CCL5 mRNA expression in human U118MG cells at EC10 by qPCR method relative to beta-actin
[33] = system: U-118-MG; assay: Effect on TGFB1 mRNA expression in human U118MG cells at EC10 by qPCR method relative to beta-actin
[34] = system: SH-SY5Y; assay: Effect on TGFB1 mRNA expression in human SH-SY5Y cells at EC10 by qPCR method relative to beta-actin
[35] = system: SK-N-SH; assay: Effect on CCL5 mRNA expression in human SK-N-SH cells at EC10 by qPCR method relative to beta-actin
[36] = system: SH-SY5Y; assay: Effect on PLP1 mRNA expression in human SH-SY5Y cells at EC10 by qPCR method relative to beta-actin
[37] = system: U-118-MG; assay: Effect on TNFRSF1A mRNA expression in human U118MG cells at EC10 by qPCR method relative to beta-actin
[38] = system: SK-N-SH; assay: Effect on HLA-DRB1 mRNA expression in human SK-N-SH cells at EC10 by qPCR method relative to beta-actin
[39] = system: SH-SY5Y; assay: Effect on TNFRSF1B mRNA expression in human SH-SY5Y cells at EC10 by qPCR method relative to beta-actin
[40] = system: U-118-MG; assay: Effect on CXCL9 mRNA expression in human U118MG cells at EC10 by qPCR method relative to beta-actin

SMILES: CCCCCCCCn1nnnc1CCC(N)(CO)CO.Cl
- fold change (FC) [1]: 4.6448
- fold change (FC) [2]: 4.2936
- fold change (FC) [3]: -6.1329
- fold change (FC) [4]: -2.6686
- fold change (FC) [5]: -5.1941
- fold change (FC) [6]: -3.5323
- fold change (FC) [7]: -5.9963
- fold change (FC) [8]: -2.54
- fold change (FC) [9]: -6.6894

SMILES: CCCCCCCCc1ccc(CCC(N)(CO)CO)cc1 [FINGOLIMOD]
- fold change (FC) [10]: -15.9446
- fold change (FC) [11]: -3.1808
- fold change (FC) [12]: 5.5368
- fold change (FC) [13]: -4.0523
- fold change (FC) [14]: -5.0718
- fold change (FC) [15]: -4.9331
- fold change (FC) [16]: -4.4856
- fold change (FC) [17]: -2.5624
- fold change (FC) [18]: -3.8172
- fold change (FC) [19]: -5.5117
- fold change (FC) [20]: -5.4523
- fold change (FC) [21]: -8.3109
- fold change (FC) [22]: -3.1329
- fold change (FC) [23]: -2.5646
- fold change (FC) [24]: -4.9171
- fold change (FC) [25]: -3.3753
- fold change (FC) [26]: -5.361
- fold change (FC) [27]: -3.9655
- fold change (FC) [28]: -3.8671
- fold change (FC) [29]: -6.6778
- fold change (FC) [30]: 3.818

SMILES: CCCCCCCCn1nnnc1-c1ccc(C(O)CC(N)(CO)CO)cc1.Cl (stereo not given)
- fold change (FC) [31]: -3.0249
- fold change (FC) [32]: -5.3124
- fold change (FC) [33]: -5.1404
- fold change (FC) [34]: -5.0784
- fold change (FC) [35]: -4.1626
- fold change (FC) [36]: 3.7859
- fold change (FC) [37]: -3.0144
- fold change (FC) [38]: -4.1339
- fold change (FC) [39]: -2.9117
- fold change (FC) [40]: -4.1536
